From paper PMC11882969 (Nature Communications, 2025)
“And” between values parts separate entries of the source, which are not always exact repeats. Identical values can stand only once. Like-named read-outs stand apart in the source and are kept apart here.

Assays:
CB1 (rCB1) = CB1 (rCB1) (Rattus norvegicus, UniProt P20272); assay: Radioligand competition binding, [3H]-CP-55,940, rat brain membranes
hCB1 = hCB1 (Homo sapiens, UniProt P21554); assay: bioSensAll ebBRET signaling profiling, hCB1; assay type: cell-based; design: host or cells: HEK293SL cells, transient PEI transfection; details: for Gi1 hCB1 response: Gi1 biosensor; for Gi1 hCB1 / GoB hCB1: single replicate values, FigS6a; for EC50: read-out: EC50 [95% CI]; for Emax: normalized to CP-55,940
hCB1, sequence (P21554 whole entry): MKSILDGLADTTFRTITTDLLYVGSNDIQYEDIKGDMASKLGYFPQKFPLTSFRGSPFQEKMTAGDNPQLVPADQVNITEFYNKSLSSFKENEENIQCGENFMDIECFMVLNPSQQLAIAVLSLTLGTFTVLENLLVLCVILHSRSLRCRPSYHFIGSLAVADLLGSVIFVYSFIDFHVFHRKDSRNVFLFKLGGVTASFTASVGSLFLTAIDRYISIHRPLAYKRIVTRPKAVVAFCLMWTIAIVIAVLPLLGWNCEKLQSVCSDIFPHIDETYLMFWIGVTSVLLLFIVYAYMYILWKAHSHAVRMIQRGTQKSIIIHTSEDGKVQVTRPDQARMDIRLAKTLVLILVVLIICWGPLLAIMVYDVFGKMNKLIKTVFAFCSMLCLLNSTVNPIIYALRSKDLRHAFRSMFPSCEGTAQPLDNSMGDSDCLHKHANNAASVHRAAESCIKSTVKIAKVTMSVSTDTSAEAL

CB1 (rCB1), sequence (P20272 whole entry): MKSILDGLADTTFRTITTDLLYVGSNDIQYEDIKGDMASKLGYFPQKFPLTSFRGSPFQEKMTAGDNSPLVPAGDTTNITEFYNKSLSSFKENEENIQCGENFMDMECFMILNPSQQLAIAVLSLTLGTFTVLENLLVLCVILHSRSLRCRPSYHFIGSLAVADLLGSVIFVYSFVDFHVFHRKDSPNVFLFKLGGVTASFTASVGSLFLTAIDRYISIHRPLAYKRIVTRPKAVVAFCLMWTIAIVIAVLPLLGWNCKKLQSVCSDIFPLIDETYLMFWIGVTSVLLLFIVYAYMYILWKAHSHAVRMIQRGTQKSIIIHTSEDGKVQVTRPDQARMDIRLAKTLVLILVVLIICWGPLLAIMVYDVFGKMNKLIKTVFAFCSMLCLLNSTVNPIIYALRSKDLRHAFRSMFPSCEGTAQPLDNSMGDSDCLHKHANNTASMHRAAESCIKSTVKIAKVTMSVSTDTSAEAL

Cc1cc(C(=O)NC(c2ccco2)c2ccco2)nn1-c1cccc(C(F)(F)F)c1 [‘1090]
pKi [95% CI] (CB1 (rCB1); rCB1): 7.0 [6.7 – 7.4]
Ki (CB1 (rCB1); read-out: Ki [95% CI], rCB1, [3H]-CP-55,940): 90.8 nM
Gi1 hCB1 response (hCB1; Log [Compound] (M) -4.22186): 110.038
Gi1 hCB1 response (hCB1; Log [Compound] (M) -4.63927): 112.164
Gi1 hCB1 response (hCB1; Log [Compound] (M) -5.05788): 98.6907
Gi1 hCB1 response (hCB1; Log [Compound] (M) -5.47381): 79.5321
Gi1 hCB1 response (hCB1; Log [Compound] (M) -5.89285): 73.4668
Gi1 hCB1 response (hCB1; Log [Compound] (M) -6.31878): 61.1346
Gi1 hCB1 response (hCB1; Log [Compound] (M) -6.72585): 69.6395
Gi1 hCB1 response (hCB1; Log [Compound] (M) -7.14267): 48.8248
Gi1 hCB1 response (hCB1; Log [Compound] (M) -7.55284): 35.6645
Gi1 hCB1 response (hCB1; Log [Compound] (M) -8): 6.211
Gi1 hCB1 response (hCB1; Log [Compound] (M) -8.22186): 13.1264
Gi1 hCB1 response (hCB1; Log [Compound] (M) -8.39794): -25.5487
Gi1 hCB1 response (hCB1; Log [Compound] (M) -8.68787): -2.72
Gi1 hCB1 response (hCB1; Log [Compound] (M) -9.15521): -19.4162
Gi1 hCB1 response (hCB1; Log [Compound] (M) -9.61989): 5.584
Gi1 hCB1 response (hCB1; Log [Compound] (M) -10.0969): -17.9838
Gi1 hCB1 response (hCB1; Log [Compound] (M) -10.5529): 0.2123
Gi1 hCB1 response (hCB1; Log [Compound] (M) -11.0177): -1.668
Gi1 hCB1 response (hCB1; Log [Compound] (M) -11.4949): -1.668
Gi1 hCB1 response (hCB1; Log [Compound] (M) -11.9208): -2.429
Gi1 hCB1 response (hCB1; Log [Compound] (M) -12.3979): -6.524
Gi1 hCB1 response (hCB1; Log [Compound] (M) -12.8861): -4.734
Gi1 hCB1 response (hCB1; Log [Compound] (M) -13, individual replicate values): -8.293 and -12.478
Gi1 hCB1 (hCB1; Log [Compound] (M) -4.22186): 93.2514
GoB hCB1 (hCB1; Log [Compound] (M) -4.22186): 92.9275
Gi1 hCB1 (hCB1; Log [Compound] (M) -4.63927): 80.9336
GoB hCB1 (hCB1; Log [Compound] (M) -4.63927): 98.7901
Gi1 hCB1 (hCB1; Log [Compound] (M) -5.05788): 80.7948
GoB hCB1 (hCB1; Log [Compound] (M) -5.05788): 84.6911
Gi1 hCB1 (hCB1; Log [Compound] (M) -5.47381): 75.954
GoB hCB1 (hCB1; Log [Compound] (M) -5.47381): 85.1767
Gi1 hCB1 (hCB1; Log [Compound] (M) -5.89285): 77.9273
GoB hCB1 (hCB1; Log [Compound] (M) -5.89285): 88.8273
Gi1 hCB1 (hCB1; Log [Compound] (M) -6.31878): 77.4032
GoB hCB1 (hCB1; Log [Compound] (M) -6.31878): 81.2923
Gi1 hCB1 (hCB1; Log [Compound] (M) -6.72585): 72.1615
GoB hCB1 (hCB1; Log [Compound] (M) -6.72585): 72.8221
Gi1 hCB1 (hCB1; Log [Compound] (M) -7.14267): 54.5866
GoB hCB1 (hCB1; Log [Compound] (M) -7.14267): 60.3417
Gi1 hCB1 (hCB1; Log [Compound] (M) -7.55284): 37.9676
GoB hCB1 (hCB1; Log [Compound] (M) -7.55284): 40.506
Gi1 hCB1 (hCB1; Log [Compound] (M) -8): 20.7318
GoB hCB1 (hCB1; Log [Compound] (M) -8): 24.4829
Gi1 hCB1 (hCB1; Log [Compound] (M) -8.22186): 14.9814
GoB hCB1 (hCB1; Log [Compound] (M) -8.22186): 13.6209
Gi1 hCB1 (hCB1; Log [Compound] (M) -8.39794): 11.266
GoB hCB1 (hCB1; Log [Compound] (M) -8.39794): 8.064
Gi1 hCB1 (hCB1; Log [Compound] (M) -8.68787): 5.932
GoB hCB1 (hCB1; Log [Compound] (M) -8.68787): 3.406
Gi1 hCB1 (hCB1; Log [Compound] (M) -9.15521): 2.879
GoB hCB1 (hCB1; Log [Compound] (M) -9.15521): 0.583
Gi1 hCB1 (hCB1; Log [Compound] (M) -9.61989): 1.785
GoB hCB1 (hCB1; Log [Compound] (M) -9.61989): -2.51
Gi1 hCB1 (hCB1; Log [Compound] (M) -10.0969): 3.897
GoB hCB1 (hCB1; Log [Compound] (M) -10.0969): -0.2442
Gi1 hCB1 (hCB1; Log [Compound] (M) -10.5529): 2.155
GoB hCB1 (hCB1; Log [Compound] (M) -10.5529): -0.55
Gi1 hCB1 (hCB1; Log [Compound] (M) -11.0177): 2.633
GoB hCB1 (hCB1; Log [Compound] (M) -11.0177): 0.2233
Gi1 hCB1 (hCB1; Log [Compound] (M) -11.4949): 3.6965
GoB hCB1 (hCB1; Log [Compound] (M) -11.4949): 0.565
Gi1 hCB1 (hCB1; Log [Compound] (M) -11.9208): 1.261
GoB hCB1 (hCB1; Log [Compound] (M) -11.9208): 2.507
Gi1 hCB1 (hCB1; Log [Compound] (M) -12.3979): 3.666
GoB hCB1 (hCB1; Log [Compound] (M) -12.3979): 1.59
Gi1 hCB1 (hCB1; Log [Compound] (M) -12.8861): 2.17
GoB hCB1 (hCB1; Log [Compound] (M) -12.8861): 4.557
Gi1 hCB1 (hCB1; Log [Compound] (M) -13): 1.415 and 2.093
GoB hCB1 (hCB1; Log [Compound] (M) -13): 4.719 and 2.903
pEC50 [95% CI] (hCB1; hCB1 Gi1): 7.5 [7.3 – 7.5]
pEC50 [95% CI] (hCB1; hCB1 GoB): 7.4 [7.3 – 7.5]
pEC50 [95% CI] (hCB1; hCB1 Gz): 6.9 [6.5 – 7.4]
EC50 (hCB1; hCB1 Gi1): 35.6 nM
EC50 (hCB1; hCB1 GoB): 37.3 nM
Emax (hCB1; read-out: Emax [95% CI], hCB1 Gi1): 81%
Emax (hCB1; read-out: Emax [95% CI], hCB1 GoB): 90%
Emax (hCB1; read-out: Emax [95% CI], hCB1 Gz): 115%
